Measured values taken from US20240316088A1, “Solid composition suitable as a nutritional composition or supplement for animals that suffer from brain related disorders, decline or diseases” (N.V. Nutricia, priority 2022, published 2024).

Assay: Hygroscopicity as observed during formulation and processing
Assay type: physicochemical

Structure (SMILES) | hygroscopicity (in words)
C[N+](C)(C)CCO.O=C([O-])C(O)C(O)C(=O)O (centres unmarked) [Choline bitartrate] | much reduced hygroscopicity
C[N+](C)(C)CCO.[Cl-] [Choline chloride] | very hygroscopic
